From ChEMBL document CHEMBL3872224, “Synthesis and cytotoxicity of novel artemisinin derivatives containing sulfur atoms” (Eur J Med Chem, 2016)
pIC50: −log10 of the molar value.

What was measured:
[1] = Cytotoxicity against human A549 cells measured after 72 hrs by MTT assay; format: functional, cell-based; conditions: A549, 72 h
[2] = Cytotoxicity against human MDA-MB-435S cells measured after 72 hrs by MTT assay; format: functional, cell-based
[3] = Cytotoxicity against human SGC7901 cells measured after 72 hrs by MTT assay; format: functional, cell-based; conditions: SGC-7901, 72 h
[4] = Cytotoxicity against human PC3 cells measured after 72 hrs by MTT assay; format: functional, cell-based; conditions: PC-3, 72 h
[5] = tested on: A549; test: Selectivity index, ratio of IC50 for human L02 cells to IC50 for human A549 cells; format: functional
[6] = tested on: SGC-7901; test: Selectivity index, ratio of IC50 for human L02 cells to IC50 for human SGC7901 cells; format: functional
[7] = Cytotoxicity against human L02 measured after 72 hrs by MTT assay; format: toxicity; conditions: L02 cells

Row | Compound | pIC50 [1] | pIC50 [2] | pIC50 [3] | pIC50 [4] | Ratio IC50 [5] | Ratio IC50 [6] | IC50 at 72 h [7]
1 | C[C@@H]1[C@H](OC(=O)c2cccc(SCc3ccccc3)c2)C[C@H]2[C@@H](C)[C@H](OC(=O)c3cccc(SCc4ccccc4)c3)O[C@@H]3O[C@]4(C)CC[C@@H]1[C@]32OO4 | 3.65 | 3.54 | – | – | – | – | –
2 | CCSc1cccc(C(=O)O[C@@H]2O[C@@H]3O[C@]4(C)CC[C@H]5[C@H](C)[C@H](OC(=O)c6cccc(SCC)c6)C[C@@H]([C@H]2C)[C@@]35OO4)c1 | 4.35 | 3.95 | 4.13 | 4.52 | – | – | –
3 | O=c1[nH]cc(F)c(=O)[nH]1 [FLUOROURACIL] | 5.17 | 4.82 | – | – | 3.8 | 2.2 | 25.9 µM
4 | C[C@@H]1[C@H](O)C[C@H]2[C@@H](C)C(=O)O[C@@H]3O[C@]4(C)CC[C@@H]1[C@]32OO4 | 4.09 | 4.66 | – | – | 1.8 | – | 146 µM
5 | COc1ccc(Sc2cccc(C(=O)O[C@@H]3O[C@@H]4O[C@]5(C)CC[C@H]6[C@H](C)[C@H](O)C[C@@H]([C@H]3C)[C@@]46OO5)c2)cc1 | 5.80 | 3.91 | 5.15 | 4.89 | 50.1 | 11.3 | 80.2 µM
6 | CCCCSc1cccc(C(=O)O[C@@H]2O[C@@H]3O[C@]4(C)CC[C@H]5[C@H](C)[C@H](O)C[C@@H]([C@H]2C)[C@@]35OO4)c1 | 4.02 | – | 3.76 | 3.33 | – | – | –
7 | C[C@@H]1[C@H](O)C[C@H]2[C@@H](C)[C@H](OC(=O)c3cccc(SCc4ccccc4)c3)O[C@@H]3O[C@]4(C)CC[C@@H]1[C@]32OO4 | 4.02 | 3.65 | – | 3.84 | – | – | –
8 | C[C@@H]1[C@H](O)C[C@H]2[C@@H](C)[C@H](OC(=O)c3cccc(SC4CCCCC4)c3)O[C@@H]3O[C@]4(C)CC[C@@H]1[C@]32OO4 | 4.48 | 4.53 | 3.26 | 3.69 | – | – | –
9 | CCCCSc1cccc(C(=O)O[C@@H]2O[C@@H]3O[C@]4(C)CC[C@H]5[C@H](C)[C@H](OC(=O)c6cccc(SCCCC)c6)C[C@@H]([C@H]2C)[C@@]35OO4)c1 | 3.97 | – | 4.07 | 3.94 | – | – | –
10 | CCSc1cccc(C(=O)O[C@@H]2O[C@@H]3O[C@]4(C)CC[C@H]5[C@H](C)[C@H](O)C[C@@H]([C@H]2C)[C@@]35OO4)c1 | 2.84 | 3.92 | – | – | – | – | –
11 | COc1ccc(Sc2cccc(C(=O)O[C@@H]3O[C@@H]4O[C@]5(C)CC[C@H]6[C@H](C)[C@H](OC(=O)c7cccc(Sc8ccc(OC)cc8)c7)C[C@@H]([C@H]3C)[C@@]46OO5)c2)cc1 | 5.37 | 3.97 | 5.22 | 4.52 | 16.1 | 11.5 | 69.2 µM
